Source: patent US4284633A, “Derivatives of xanthine” (Boehringer Mannheim GmbH, priority 1979, dated 1981)

Tested on: antigen induced bronchospasm
Experiment: inhibition of antigen induced bronchospasm in passively sensitized guinea pigs
Format: in vivo, guinea pig
Settings: 5 minutes before antigen, evaluated 3 minutes after antigen
Procedure: Specifically, tests were run as follows:
The antigen is twice recrystallized egg albumin.
The animals were bled and the pooled serum stored at -20° C.
Injections of 0.5 ml antiserum of 1:50 dilution were given i.v. 24-48 h before challenge.
Guinea pigs were anaesthetized with pentobarbital sodium (40 mg/kg i.p.). Cannulae were tied into the trachea and the jugular vein and the lung inflated with a pump at a rate of 72 strokes/min and a constant stroke volume of 6-8 ml.
Bronchospasm, provoked by injecting ovalbumin i.v. was measured as described by Konzett, H. and R. Rossler, "Versuchsanordnung und Untersuchungen an der Bronchialmuskulatur" Naunyn-Schmiedebergs, Arch. exp. Path. Pharmak.
The drugs were applied intravenously 5 minutes before the antigen.
For calculation the following formula was used: [formula] b=Bronchospasm after antigen injection, measured in mm from tracing m=maximum height of tracing in mm with arm of the treachea-cannula clamped
a=pre injection height of the tracing in mm

Cn1c(=O)c2[nH]cnc2n(C)c1=O [Aminophylline, reference compound]
% inhibition Br Sp (antigen induced bronchospasm) (24 mg/kg i.v.): 29%

Cn1c(=O)c2c(ncn2CCCN2CCC(NC(=O)c3ccccc3O)CC2)n(C)c1=O [Example 4a, 7-{3-[4-(2-hydroxybenzamido)-piperidino]-propyl}-theophylline]
% inhibition Br Sp (antigen induced bronchospasm) (0.1 mg/kg i.v.): 82%

CC(=O)NC1CCN(CCCn2cnc3c2c(=O)n(C)c(=O)n3C)CC1 [Example 2c, 7-[3-(4-acetamidopiperidino)-propyl]-theophylline]
% inhibition Br Sp (antigen induced bronchospasm) (0.38 mg/kg i.v.): 37%

Cn1c(=O)c2c(ncn2CCCN2CCC(NC(=O)c3cccs3)CC2)n(C)c1=O [Example 4d, 7-{3-[4-(thiophene-2-carboxamido)-piperidino]-propyl}-theophylline]
% inhibition Br Sp (antigen induced bronchospasm) (0.1 mg/kg i.v.): 38%

Cn1c(=O)c2c(ncn2CCCN2CCC(NC(=O)Cc3ccccc3)CC2)n(C)c1=O [Example 2e, 7-[3-(4-phenylacetamidopiperidino)-propyl]-theophylline]
% inhibition Br Sp (antigen induced bronchospasm) (0.38 mg/kg i.v.): 68%

Cc1ccccc1C(=O)NC1CCN(CCCn2cnc3c2c(=O)n(C)c(=O)n3C)CC1 [Example 2d, 7-{3-[4-(2-methylbenzamido)-piperidino]-propyl}-theophylline]
% inhibition Br Sp (antigen induced bronchospasm) (0.1 mg/kg i.v.): 60%
